Assay results from patent US8148407B2, “Compounds derived from 5-thioxylose and their use in therapeutics” (Laboratories Fournier S.A., priority 2005, dated 2012).

Tests used:
venous thrombosis = assay: Venous thrombosis test in the rat (Wessler venous stasis under hypercoagulation with factor Xa), oral administration; format: in vivo; settings: Wistar male rats
Protocol: The antithrombotic activity of the compounds according to the invention was studied in vivo in the rat by means of a test that reproduces a venous thrombosis. The venous thrombosis was induced according to the protocol described in Thromb. Haemost., 1992, 67(1), 176-179. The oral activity was studied according to the following operating protocol: The experiments are performed on non-fasted Wistar male rats weighing 250 to 280 g, divided into groups of 10 animals each. The test products are administered orally (tubage) dissolved or suspended in a solution of methyl cellulose (0.5% in water). […] To induce this thrombosis, a venous stasis is created under hypercoagulation according to the technique described by WESSLER (J. Applied Physiol., 1959, 943-946), the hypercoagulating agent used being a solution of activated factor X (Xa) having a concentration of 7.5 nKat/kg, supplied by Biogenic (Montpellier). The venous stasis is effected exactly 10 seconds after injection of the hypercoagulating agent. The activity of the test compounds was checked at different doses after they had been administered.

[1] = Rattus norvegicus, dose 6 mg/kg, thrombosis induced 2 h after administration, read-out: Oral activity: Activity (percentage inhibition of thrombus formation)
[2] = dose 6 mg/kg, thrombosis induced 2 h after administration

Row | SMILES | inhibition in vivo at 6 mg/kg (venous thrombosis; [1]) [%] | melting point [°C] | also measured
1 | CC(=O)c1ccc(O[C@@H]2SC[C@@H](O)[C@H](O)[C@H]2O)cn1 [Example 2, 6-acetyl-3-pyridinyl 5-thio-β-D-xylopyranoside] | 63 |  | 
2 | CC(=O)O[C@@H]1[C@@H](OC(C)=O)[C@H](OC(C)=O)CS[C@H]1Oc1cccnc1C(C)=O [Example 3, 2-acetyl-3-pyridinyl 2,3,4-tri-O-acetyl-5-thio-β-D-xylopyranoside] |  |  | inhibition in vivo at 8.6 mg/kg (venous thrombosis; Rattus norvegicus, dose 8.6 mg/kg, thrombosis induced 2 h after administration, read-out: Oral activity: Activity (percentage inhibition of thrombus formation)): 92%
3 | CC(=O)c1ncccc1O[C@@H]1SC[C@@H](O)[C@H](O)[C@H]1O [Example 4, 2-acetyl-3-pyridinyl 5-thio-β-D-xylopyranoside] | 96 | 123 | 
4 | N#Cc1ccc(C(=O)c2ncccc2O[C@@H]2SC[C@@H](O)[C@H](O)[C@H]2O)cc1 [Example 6, [2-(4-cyanobenzoyl)-3-pyridinyl]5-thio-β-D-xylopyranoside] |  |  | Oral activity: Activity (percentage inhibition of thrombus formation) (venous thrombosis; [2]): 61%; Oral activity: Activity (percentage inhibition of thrombus formation) (venous thrombosis; dose 6 mg/kg, thrombosis induced 8 h after administration): 26%
5 | O=C(c1ccc(C(F)(F)F)cc1)c1ccc(O[C@@H]2SC[C@@H](O)[C@H](O)[C@H]2O)cn1 [Example 8, [6-[4-(trifluoromethyl)benzoyl]-3-pyridinyl]5-thio-β-D-xylopyranoside] |  |  | Oral activity: Activity (percentage inhibition of thrombus formation) (venous thrombosis; [2]): 46%
6 | N#Cc1ccc(-c2ncccc2O[C@@H]2SC[C@@H](O)[C@H](O)[C@H]2O)cc1 [Example 12, [2-(4-cyanophenyl)-3-pyridinyl]5-thio-β-D-xylopyranoside] |  |  | Oral activity: Activity (percentage inhibition of thrombus formation) (venous thrombosis; [2]): 14%
7 | O[C@@H]1[C@@H](O)[C@H](Oc2cncc(-c3ccccc3)c2)SC[C@H]1O [Example 14, 5-phenyl-3-pyridinyl 5-thio-β-D-xylopyranoside] | 50 |  | 
8 | CC(=O)O[C@@H]1[C@@H](OC(C)=O)[C@H](OC(C)=O)CS[C@H]1Oc1cncc(-c2ccc(C#N)cc2)c1 [Example 15, [5-(4-cyanophenyl)-3-pyridinyl]2,3,4-tri-O-acetyl-5-thio-β-D-xylopyranoside] |  |  | Oral activity: Activity (percentage inhibition of thrombus formation) (venous thrombosis; dose 8.2 mg/kg, thrombosis induced 2 h after administration): 84%
9 | Cc1cc(-c2cncc(O[C@@H]3SC[C@@H](O)[C@H](O)[C@H]3O)c2)ccc1F [Example 59, 5-(4-fluoro-3-methylphenyl)-3-pyridinyl 5-thio-β-D-xylopyranoside] | 82 | 197 | 
10 | Cc1cc(F)ccc1-c1cncc(O[C@@H]2SC[C@@H](O)[C@H](O)[C@H]2O)c1 [Example 61, 5-(4-fluoro-2-methylphenyl)-3-pyridinyl 5-thio-β-D-xylopyranoside] | 98 | 217 | 
11 | O[C@@H]1[C@@H](O)[C@H](Oc2cncc(-c3ccc(F)cc3Cl)c2)SC[C@H]1O [Example 89, 5-(2-chloro-4-fluorophenyl)-3-pyridinyl 5-thio-β-D-xylopyranoside] | 100 | 208 to 211 | 
12 | Cc1ccc(-c2ccc(O[C@@H]3SC[C@@H](O)[C@H](O)[C@H]3O)cn2)cc1 [Example 99, 6-(4-methylphenyl)-3-pyridinyl 5-thio-β-D-xylopyranoside] | 72 | 191 | 
13 | COc1ccc(-c2ccncc2O[C@@H]2SC[C@@H](O)[C@H](O)[C@H]2O)cc1 [Example 101, 4-(4-methoxyphenyl)-3-pyridinyl 5-thio-β-D-xylopyranoside] | 97 | 228 | 
14 | COc1ccc(-c2cncc(O[C@@H]3SC[C@@H](O)[C@H](O)[C@H]3O)c2)cc1F [Example 103, 5-(3-fluoro-4-methoxyphenyl)-3-pyridinyl 5-thio-β-D-xylopyranoside] | 100 | 200 | 
15 | O[C@@H]1[C@@H](O)[C@H](Oc2cncc(-c3cccc(F)c3)c2)SC[C@H]1O [Example 123, 5-(3-fluorophenyl)-3-pyridinyl 5-thio-β-D-xylopyranoside] | 97 |  | 
16 | O[C@@H]1[C@@H](O)[C@H](Oc2cncc(-c3ccccc3F)c2)SC[C@H]1O [Example 126, 5-(2-fluorophenyl)-3-pyridinyl 5-thio-β-D-xylopyranoside] | 91 |  | 
17 | O[C@@H]1[C@@H](O)[C@H](Oc2cncc(-c3ccc(F)c(Cl)c3)c2)SC[C@H]1O [Example 131, 5-(3-chloro-4-fluorophenyl)-3-pyridinyl 5-thio-β-D-xylopyranoside] | 80 |  | 
18 | Cc1cc(-c2cncc(O[C@@H]3SC[C@@H](O)[C@H](O)[C@H]3O)c2)ccc1C#N [Example 150, 5-(4-cyano-3-methylphenyl)-3-pyridinyl 5-thio-β-D-xylopyranoside] |  | 198 to 200 | 
19 | Cc1cc(C#N)ccc1-c1cncc(O[C@@H]2SC[C@@H](O)[C@H](O)[C@H]2O)c1 [Example 154, 5-(4-cyano-2-methylphenyl)-3-pyridinyl 5-thio-β-D-xylopyranoside] |  | 202 to 206 | 
20 | N#Cc1ccc(-c2cncc(O[C@@H]3SC[C@@H](O)[C@H](O)[C@H]3O)c2)cc1C#N [Example 156, 5-(3,4-dicyanophenyl)-3-pyridinyl 5-thio-β-D-xylopyranoside] |  | 192 | 
21 | CCN(CC)C(=O)c1cncc(O[C@@H]2SC[C@@H](O)[C@H](O)[C@H]2O)c1 [Example 160, 5-[(N,N-diethylamino)carbonyl]-3-pyridinyl 5-thio-β-D-xylopyranoside] |  | 143 | 
22 | Cc1cc(F)ccc1-c1cc(O[C@@H]2SC[C@@H](O)[C@H](O)[C@H]2O)ccn1 [Example 162, 2-(4-fluoro-2-methylphenyl)-4-pyridinyl 5-thio-β-D-xylopyranoside] |  | 147 | 
